Results from US20170202787A1, “TREATMENT OF CHRONIC OBSTRUCTIVE PULMONARY DISEASE WITH NEBULIZED BETA 2-AGONIST OR COMBINED NEBULIZED BETA 2-AGONIST AND ANTICHOLINERGIC ADMINISTRATION” (Sunovion Respiratory Development, Inc., priority 2009, published 2017).
Structures can show the parent of a compound that is named as a salt. Where two headings read alike, the source gives them in different places.

Key:
[1] = not given; remark: listed apart in the source
[2] = high efficiency nebulizer
[3] = Example 6: randomized, cross-over, single dose study of nebulized salmeterol in healthy volunteers
[4] = not given; remark: listed apart in the source
[5] = not given; remark: listed apart in the source
[6] = approved twice-daily dosing in COPD; cited from earlier work
[7] = nebulized, clinical trial in COPD; cited from earlier work
[8] = conventional nebulizer, same or higher dose
[9] = lower dose, high efficiency nebulizer

COc1ccc(C[C@@H](C)NC[C@H](O)c2ccc(O)c(NC=O)c2)cc1 [arformoterol, R,R-formoterol]
duration of clinically meaningful bronchodilation [8]: less than 24 hours | duration of clinically meaningful bronchodilation (high efficiency nebulizer): at least 24 hours | duration of clinically meaningful bronchodilation [1, 8]: less than 24 hours | duration of clinically meaningful bronchodilation ([1]; high efficiency nebulizer): at least 24 hours | adverse event profile compared to a comparable or lower dose with a conventional nebulizer [2]: improved adverse event profile | lung deposition compared to a comparable or higher dose with a conventional nebulizer [2]: higher degree of lung deposition

OCc1cc(C(O)CNCCCCCCOCCCCc2ccccc2)ccc1O (centres unmarked) [salmeterol]
duration of clinically meaningful bronchodilation ([3]; high efficiency nebulizer): at least 24 hours | period of time of therapeutic effect ([3]; high efficiency nebulizer, tested doses): 12 to 24 h | adverse event profile / side effects (serum potassium, glucose) compared to a selected dose with a conventional nebulizer [3, 9]: improved adverse event profile and/or improved side effects | therapeutic effects compared to a selected dose with a conventional nebulizer [3, 9]: improved or similar therapeutic effects | duration of clinically meaningful bronchodilation ([3]; same dose with conventional nebulizer, metered dose inhaler, or dry powder inhaler): less than 24 hours

COc1ccc(CC(C)NCC(O)c2ccc(O)c(NC=O)c2)cc1 (racemic) [formoterol]
duration of clinically meaningful bronchodilation [4, 8]: less than 24 hours | duration of clinically meaningful bronchodilation ([4]; high efficiency nebulizer): at least 24 hours | duration of clinically meaningful bronchodilation [5, 8]: less than 24 hours | duration of clinically meaningful bronchodilation ([5]; high efficiency nebulizer): at least 24 hours

OCc1cc(C(O)CNCCCCCCOCCCCc2ccccc2)ccc1O (centres unmarked) [salmeterol xinafoate]
duration of clinically meaningful bronchodilation with acceptable side effects [6]: 12 h

COc1ccc(C[C@@H](C)NC[C@H](O)c2ccc(O)c(NC=O)c2)cc1.COc1ccc(C[C@@H](C)NC[C@H](O)c2ccc(O)c(NC=O)c2)cc1.O=C(O)/C=C/C(=O)O [formoterol fumarate]
duration of clinically meaningful bronchodilation with acceptable side effects [6]: 12 h

COc1ccc(C[C@@H](C)NC[C@H](O)c2ccc(O)c(NC=O)c2)cc1 [arformoterol tartrate]
duration of clinically meaningful bronchodilation with acceptable side effects [6]: 12 h | duration of clinically meaningful bronchodilation [7]: 24 h | side effects at the dosing giving 24 hours of bronchodilation [7]: unacceptable side effects
